These results are taken from PMC11742080, “Decavanadate Compound Displays In Vitro and In Vivo Antitumor Effect on Melanoma Models” (Bioinorganic Chemistry and Applications, 2025).

Assay [1] relates to allograft model of B16-F10 cells in mice. On the set-up: method as in PMID 29407869, PMID 6722991. Particulars: cited from earlier work.
Assay [2] deals with skin papillomas caused by the injection of DMBA and croton oil. Also on record: method as in PMID 28010928. The settings on record: 5 mg/kg; cited from earlier work.
Assay [3] has as its system COLO829 melanoma cell. On the set-up: method as in PMID 32967177. Particulars: read-out: IC50, cell proliferation; cited from earlier work.
Assay [4] relates to IGR39 cells. The settings on record: IGR39 proliferation; read-out: IC50, antiproliferative effect on IGR39; cited from earlier work.
Assay [5] deals with UACC-62 human melanoma cells. Particulars: UACC-62, at 5 μM; cited from earlier work.
The subject of assay [6] is A375 human melanoma cell. Also on record: method as in PMID 33132760. The settings on record: A375, 24 h treatment, cited from earlier work.
Assay [7] relates to murine B16-F10 melanoma cells. The settings on record: cited from earlier work.
For assay [8], the system named is IGR37 human melanoma cells. In words: MTT cell viability assay, IGR37. The class given is cell-based. On the procedure:
(§1) The MTT assay was first described as a sensitive, quantitative, and reliable colorimetric assay to measure the viability, proliferation, and activation of cells. Cell viability was assessed at 24 and 72 h of treatment to evaluate cytotoxicity and the effect on cell proliferation of the decavanadate compound, respectively. The concentrations of the decavanadate compound have been determined by weighing the compound in its crystal form and then solubilizing it in distilled water.
(§2) All cell lines were seeded in 96-well plates (Nunc, Roskilde, Denmark) at a density of 10^4 cells per well and were incubated overnight, before treatment with different concentrations of the decavanadate compound. After 24 or 72 h of treatment, fresh media solution containing MTT at 0.5 mg/mL was added to cells and incubated for 3 h at 37°C. The formed formazan crystals were then dissolved in DMSO, and the absorbance was measured at 560 nm using a BioTek EON Microplate Spectrophotometer (Fisher Scientific). Cell viability was expressed as a percentage of the viable cell number of the untreated cells (control [CTR]).
(§3) The concentration of the decavanadate compound required for 50% growth inhibition (IC50 value) was estimated as resulting in a 50% decrease in absorbance, compared to the CTR.

The test system of assay [9] is IGR39 human melanoma cells. In words: MTT cell viability assay, IGR39. The assay is classed as cell-based. As to the method:
as §1, §2, §3

In assay [10] the test system is human SK-MEL-28 melanoma. Particulars: cited from earlier work.
The test system of assay [11] is normal human keratinocyte cells (HaCaT). The settings on record: cited from earlier work.

Read-outs that look alike come from different tables or passages of the source.

On to `O=S(=O)([O-])[O-].[O]=[V+2]` [vanadyl sulfate], for which the “Tumor size and incidence” value in assay [1] was “significantly decreased tumor size and their incidence”.

Turning to `[O]=[V]([O-])([O-])[O-]` [orthovanadate], the “Incidence of skin papillomas” value in assay [2] is given as “partially inhibited the incidence of skin papillomas”.

As for `C[C@H]1c2cccc(O)c2C(=O)C2=C(O)[C@]3(O)C(=O)C(C(N)=O)=C(O)[C@@H](N(C)C)[C@@H]3[C@@H](O)[C@@H]21` [doxycycline], the IC50 in assay [3] was 16.2 µM.

Take Mg(H2O)6(C4N2H7)4V10O28·4H2O: in [4], the IC50 was 2 µM.

As for metformin–decavanadate [Metf-V10], the Inhibition of proliferation in [5] is 80%.

Consider `[O]=[V]([O-])([O-])[O-]` [vanadate], for which the “Tumor size and incidence” value in assay [1] was “significantly decreased tumor size and their incidence”.

For the compound `C[C@@H]1O[C@@H](OC[C@H]2O[C@@H](Oc3c(-c4ccc(O)c(O)c4)oc4cc(O)cc(O)c4c3=O)[C@H](O)[C@@H](O)[C@@H]2O)[C@H](O)[C@H](O)[C@H]1O` [rutoside], the “IC50, cell viability” value in assay [6] was “about 100 μg/mL”. In addition, the IC50 in assay [6] (read-out: IC50, cell viability) was roughly 163 µM.

For `CN(C)c1ccc(O)c2c1C[C@H]1C[C@H]3[C@H](N(C)C)C(O)=C(C(N)=O)C(=O)[C@@]3(O)C(O)=C1C2=O` [Minocycline], the IC50 in assay [3] is 13.9 µM.

Consider `N.N.[Cl][Pt][Cl]` [Cisplatin, cisplatin], for which the IC50 was 19.5 µM in assay [7] (B16-F10, 24 h); 10 µM in assay [7] (B16-F10, 72 h); 26.5 µM in [8] (IGR37, 24 h treatment); 3 µM in assay [8] (IGR37, 72 h treatment); 83 µM in [9] (IGR39, 24 h treatment); 12.5 µM in [9] (IGR39, 72 h treatment). The IC50 is greater than 12.5 µM in [10] (SKMEL28, 24 h); 9.5 µM in [10] (SKMEL28, 72 h); 23.9 µM in [11] (HaCaT, 24 h); 23.9 µM in assay [11] (HaCaT, 72 h); 23.9 µM in assay [11] (keratinocyte cell line, 'was reported', no reference printed in the abstract). Besides, the “IC50, cell viability” value in assay [8] (IGR37, 24 h treatment) is 8 µg/mL; in assay [8] (IGR37, 72 h treatment) it was 0.9 µg/mL; in [9] (IGR39, 24 h treatment), 25 µg/mL; in [9] (IGR39, 72 h treatment), 3.8 µg/mL.

As for (C4N2H7)6(C4N2H6)2V10O28, the IC50 in assay [4] is 7 µM.

For (NH4)4Li2V10O2810H2O, in assay [4], the IC50 was 9.8 µM.
